Where a name gives a salt, the structure may show the parent alone.
Key:
[1] = sequoyitol isolated from Taxus chinensis; cited from earlier work
[2] = Solubility in water; type: physicochemical
Description: The sequoyitol was dissolved in water and sterilized by filtration. Solutions for injection were prepared according to the preparation process of solutions for injection. Powder for injection was prepared according to the preparation process of lyophilized powder for injection.

[3] = test system: diabetes models; conditions: sequoyitol isolated from Taxus chinensis; cited from earlier work
[4] = test system: elevated level of blood glucose induced by Alloxan in mice; test: Effect on the elevated level of blood glucose induced by alloxan in mice; type: in vivo; conditions: 75 mg/kg for 7 days
Description: Animals: 100 male mice weighed 22-25 g, Positive control: Phenformin Hydrochloride (Jiangsu Yabang Pharmaceutical (group) Co., Ltd.),
20 mice were randomly selected as the blank group. Others were injected intravenously with Alloxan via caudal vein at a dose of 65 mg/kg body weight, and then modeled according to established methods. The mice were divided into 4 groups according to their level of blood glucose, in which 3 groups were administered with 60 mg/kg of the plant extract, 75 mg/kg of Phenformin Hydrochloride, or 60 mg/kg of sequoyitol-containing Taxus chinensis extract respectively for 7 days, in a volume of 0.1 ml/10 g body weight. The same volume of distilled water was administered to the blank group and the control group. Blood glucose was determined using glucose oxidase method.

CO[C@H]1[C@H](O)[C@@H](O)[C@@H](O)[C@@H](O)[C@@H]1O [Sequoyitol, sequoyitol]
Toxicity [1]: very low toxicity
Solubility in water [2]: well soluble in water
Effect on breakdown of hepatic glycogen and absorption of glucose [3]: inhibits the breakdown of hepatic glycogen and the absorption of glucose
Effect on high glycemia in diabetes models [3]: remarkably decreases high glycemia

[H]/N=C(/N)N/C(=N/[H])NCCc1ccccc1 [Phenformin Hydrochloride]
Decrease of alloxan-induced hyperglycemia in comparison to the control group [4]: 155.8 mg/dL

From patent publication US20100197803A1, “METHOD FOR OBTAINING A SEQUOYITOL-CONTAINING EXTRACT FROM A PLANT OF THE GENUS OF TRIFOLIUM, LEGUMINOSAE OR GINKOACEAE AND USES THEREOF” (LIANCHUANGSIYUANLI BIOLOGY AND SCIENCE AND TECHNOLOGY CO., …, priority 2007, published 2010)
